Data: patent publication US6849648B2, “Phenylene alkyne matrix metalloproteinase inhibitors” (Warner-Lambert Company, priority 2001, dated 2005)
Like-named read-outs stand apart in the source and are kept apart here.

Experiments:
[1] = target: T1, MMP-1FL (full length interstitial collagenase) (Homo sapiens, UniProt P03956); assay: Thiopeptolide hydrolysis assay, full length interstitial collagenase; type: biochemical; conditions: Table 3; full-length MMP01
T1 sequence (P03956 100-469): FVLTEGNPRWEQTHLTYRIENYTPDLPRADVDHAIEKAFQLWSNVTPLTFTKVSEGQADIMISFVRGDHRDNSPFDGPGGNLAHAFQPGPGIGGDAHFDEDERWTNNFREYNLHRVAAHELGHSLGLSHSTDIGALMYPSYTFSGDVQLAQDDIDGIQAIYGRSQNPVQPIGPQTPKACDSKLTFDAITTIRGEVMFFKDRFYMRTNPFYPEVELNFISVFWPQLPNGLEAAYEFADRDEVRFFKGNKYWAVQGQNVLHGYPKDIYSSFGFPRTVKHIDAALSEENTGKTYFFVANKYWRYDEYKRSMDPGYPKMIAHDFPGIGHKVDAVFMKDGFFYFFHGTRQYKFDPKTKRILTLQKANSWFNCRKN
Source text: (§1) The assays measure the amount by which a test compound reduces the hydrolysis of a thiopeptolide substrate caused by a matrix metalloproteinase enzyme. Such assays are described in detail by Ye et al., in Biochemistry, 1992;31(45):11231-11235, which is incorporated herein by reference.
(§2) Thiopeptolide substrates show virtually no decomposition or hydrolysis in the absence of a matrix metalloproteinase enzyme. A typical thiopeptolide substrate commonly utilized for assays is Ac-Pro-Leu-Gly-thioester-Leu-Leu-Gly-OEt. A 100 μL assay mixture will contain 50 mM of 2-morpholinoethane sulfonic acid monohydrate (MES, pH 6.0) 10 mM CaCl2, 100 μM thiopeptolide substrate, and 1 mM 5,5′-dithio-bis-(2-nitro-benzoic acid) (DTNB). The thiopeptolide substrate concentration is varied from 10 to 800 μM to obtain Km and Kcat values. The change in absorbance at 405 nm is monitored on a Thermo Max microplate reader (molecular Devices, Menlo Park, Calif.) at room temperature (22° C.). The calculation of the amount of hydrolysis of the thiopeptolide substrate is based on E412=13600 m^−1 cm^−1 for the DTNB-derived product 3-carboxy-4-nitrothiophenoxide. Assays are carried out with and without matrix metalloproteinase inhibitor compounds, and the amount of hydrolysis is compared for a determination of inhibitory activity of the test compounds.
(§3) Several representative compounds have been evaluated for their ability to inhibit various matrix metalloproteinase enzymes. Table 1 below presents inhibitory activity as IC50's in micromolar for representative invention compounds. In the table, MMP-1FL refers to full length interstitial collagenase; MMP-2FL refers to full length Gelatinase A; MMP-3CD refers to the catalytic domain of stromelysin; MMP-7FL refers to full length matrilysin; MMP-9FL refers to full length Gelatinase B; MMP-13CD refers to the catalytic domain of collagenase 3; and MMP-14CD refers to the catalytic domain of MMP-14. Test compounds were evaluated at various concentrations in order to determine their respective IC50 values, the micromolar concentration of compound required to cause a 50% inhibition of the hydrolytic activity of the respective enzyme.

[2] = target: MMP-9FL (full length Gelatinase B) (Homo sapiens, UniProt P14780); assay: Thiopeptolide hydrolysis assay, full length Gelatinase B; type: biochemical; conditions: Table 3; full-length MMP09
Chain of MMP-9FL (full length Gelatinase B) (P14780 94-707, species assumed): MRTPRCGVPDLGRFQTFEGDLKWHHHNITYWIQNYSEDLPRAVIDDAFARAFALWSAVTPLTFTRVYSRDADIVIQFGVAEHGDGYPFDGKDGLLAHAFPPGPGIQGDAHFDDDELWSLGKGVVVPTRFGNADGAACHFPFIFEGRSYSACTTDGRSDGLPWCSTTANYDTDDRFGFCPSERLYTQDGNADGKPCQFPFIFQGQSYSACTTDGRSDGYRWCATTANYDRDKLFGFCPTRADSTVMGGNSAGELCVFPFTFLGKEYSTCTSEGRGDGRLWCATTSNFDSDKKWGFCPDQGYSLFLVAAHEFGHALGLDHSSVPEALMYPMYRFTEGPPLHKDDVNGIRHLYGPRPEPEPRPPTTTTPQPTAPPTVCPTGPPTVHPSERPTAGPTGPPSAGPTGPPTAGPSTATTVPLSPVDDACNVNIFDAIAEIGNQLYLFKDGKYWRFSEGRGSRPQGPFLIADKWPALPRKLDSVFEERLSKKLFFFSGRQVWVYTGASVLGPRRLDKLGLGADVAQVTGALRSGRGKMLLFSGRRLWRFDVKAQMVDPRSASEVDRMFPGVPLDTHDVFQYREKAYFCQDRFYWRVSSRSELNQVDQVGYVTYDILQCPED
Source text: as §1, §2, §3

[3] = target: T2, MMP-7FL (full length matrilysin) (Homo sapiens, UniProt P09237); assay: Thiopeptolide hydrolysis assay, full length matrilysin; type: biochemical; conditions: Table 3; full-length MMP07
T2 sequence (P09237 95-267): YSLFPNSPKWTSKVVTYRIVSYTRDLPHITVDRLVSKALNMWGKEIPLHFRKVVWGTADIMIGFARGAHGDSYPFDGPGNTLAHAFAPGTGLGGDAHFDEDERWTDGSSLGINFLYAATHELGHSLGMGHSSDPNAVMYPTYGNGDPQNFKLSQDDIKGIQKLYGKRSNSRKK
Source text: as §1, §2, §3

[4] = target: MMP-13CD (catalytic domain of collagenase 3) (Homo sapiens, UniProt P45452); assay: Thiopeptolide hydrolysis assay, catalytic domain of collagenase 3; type: biochemical
Source text: as §1, §2, §3

[5] = target: MMP-14CD (catalytic domain of MMP-14) (Homo sapiens, UniProt P50281); assay: Thiopeptolide hydrolysis assay, catalytic domain of MMP-14; type: biochemical; conditions: Table 3; MMP-14 catalytic domain; read-out: IC50 (μM) MMP14 (CD)
Source text: as §1, §2, §3

[6] = target: T3, MMP-2FL (full length Gelatinase A) (Homo sapiens, UniProt P08253); assay: Thiopeptolide hydrolysis assay, full length Gelatinase A; type: biochemical; conditions: Table 3; full-length MMP02
T3 sequence (P08253 110-660): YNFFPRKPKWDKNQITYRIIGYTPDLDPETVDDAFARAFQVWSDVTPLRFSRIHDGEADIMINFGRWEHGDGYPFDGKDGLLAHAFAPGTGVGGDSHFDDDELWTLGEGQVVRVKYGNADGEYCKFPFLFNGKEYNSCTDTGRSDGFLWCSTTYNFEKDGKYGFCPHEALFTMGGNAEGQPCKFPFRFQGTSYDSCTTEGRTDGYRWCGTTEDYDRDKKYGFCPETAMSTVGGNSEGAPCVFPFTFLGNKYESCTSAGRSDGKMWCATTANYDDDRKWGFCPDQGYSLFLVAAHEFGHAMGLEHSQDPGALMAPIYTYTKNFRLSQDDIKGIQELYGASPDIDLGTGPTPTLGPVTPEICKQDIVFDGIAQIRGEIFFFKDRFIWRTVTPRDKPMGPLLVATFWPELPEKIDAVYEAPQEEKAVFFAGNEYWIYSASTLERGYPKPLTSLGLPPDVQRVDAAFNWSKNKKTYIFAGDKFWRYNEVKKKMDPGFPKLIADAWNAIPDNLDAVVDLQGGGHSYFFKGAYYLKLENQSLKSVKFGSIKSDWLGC
Source text: as §1, §2, §3

[7] = target: MMP-3CD (catalytic domain of stromelysin) (Homo sapiens, UniProt P08254); assay: Thiopeptolide hydrolysis assay, catalytic domain of stromelysin; type: biochemical; conditions: Table 3; MMP03 catalytic domain
Chain of MMP-3CD (catalytic domain of stromelysin) (P08254 100-272 limits assumed): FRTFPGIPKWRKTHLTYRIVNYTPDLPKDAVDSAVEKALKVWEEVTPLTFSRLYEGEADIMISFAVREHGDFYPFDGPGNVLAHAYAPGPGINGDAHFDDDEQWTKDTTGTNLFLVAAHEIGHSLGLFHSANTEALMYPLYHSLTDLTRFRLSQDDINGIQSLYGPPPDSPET
Source text: as §1, §2, §3

[8] = Table 1, thiopeptolide substrate, read-out: IC50 (μM) Versus MMPs, MMP13 (CD)
[9] = Table 3, MMP-13 catalytic domain, read-out: IC50 (μM) MMP13 (CD)
[10] = Table 2, thiopeptolide substrate, read-out: MMP-13CD (IC50)

Row | Structure (SMILES) | IC50 [1] [µM] | melting point [°C] | IC50 [2] [µM] | IC50 [3] [µM] | IC50 [4, 8] [µM] | IC50 [5] [µM] | IC50 [6] [µM] | IC50 [7] [µM] | IC50 [4, 9] [µM] | IC50 [4, 10] [µM]
1 | CN1C(=O)N(Cc2ccccc2)S(=O)(=O)c2cc(C#CCc3ccccc3)ccc21 [Example 1, 2-Benzyl-4-methyl-1,1-dioxo-7-(3-phenyl-prop-1ynyl)-1,4-dihydro-2H-1l^6-benzo[1,2,4]thiadiazin-3-one] | > 100 | 125 to 127 | > 100 | > 30 | 2.2 | > 100 | > 30 | > 30 |  | 
2 | N#Cc1ccc(CNC(=O)c2cccc(C#CCn3ccnn3)c2)cc1 [Example 4, N-(4-Cyano-benzyl)-3-(3-[1,2,3]-triazol-1-yl-prop-1-ynyl)-benzamide] |  |  |  |  |  |  |  |  |  | 100
3 | O=C(O)c1ccc(CNC(=O)c2cccc(C#CCc3ccccc3)c2)cc1 [Example 6] |  |  |  |  |  |  |  |  |  | 0.029
4 | COc1ccc(CN2C(=O)Nc3ccc(C#CCc4ccccc4)cc3S2(=O)=O)cc1 [Example 18, 2-(4-Methoxy-benzyl)-1,1-dioxo-7-(3-phenyl-prop-1-ynyl)-1,4-dihydro-2H, 1λ^6-benzo[1,2,4]thiadiazin-3-one] | > 30 |  | > 30 | > 10 |  | > 30 | > 30 | > 30 | 0.185 | 
5 | O=C(O)c1ccc(CN2C(=O)Nc3ccc(C#CCCc4ccccc4)cc3S2(=O)=O)cc1 [Example 19, 4-[1,1,3-Trioxo-7-(4-phenyl-but-1-ynyl)-3,4-dihydro-1H-1λ^6-benzo[1,2,4]thiadiazin-2-ylmethyl]-benzoic acid] |  |  |  |  |  |  |  |  | 0.079 | 

Second part, the molecule after the results:

Row | IC50 [1] [µM] | melting point [°C] | IC50 [2] [µM] | IC50 [3] [µM] | IC50 [4, 8] [µM] | IC50 [5] [µM] | IC50 [6] [µM] | IC50 [7] [µM] | IC50 [4, 9] [µM] | IC50 [4, 10] [µM] | Structure (SMILES)
6 | > 30 | 208 to 209 | > 30 | > 30 | 0.0042 | > 30 | > 30 | > 10 |  |  | CN1C(=O)N(Cc2ccc(C(=O)O)cc2)S(=O)(=O)c2cc(C#CCc3ccccc3)ccc21 [Example 2, 4-[4-Methyl-1,1,3-trioxo-7-(3-phenyl-prop-1-ynyl)-3,4-dihydro-1H-1l^6-benzo[1,2,4]thiadiazin-2-ylmethyl]-benzoic acid]
7 | > 30 |  | > 30 | > 30 |  | > 30 | > 100 | > 30 | 0.12 |  | O=C1Nc2ccc(C#CCc3ccccc3)cc2S(=O)(=O)N1Cc1ccccc1 [Example 3, 2-Benzyl-1,1-dioxo-7-(3-phenyl-prop-1-ynyl)-1,4-dihydro-2H-1l^6-benzo[1,2,4]thiadiazin-3-one]
8 |  |  |  |  |  |  |  |  |  | 66 | N#Cc1ccc(CNC(=O)c2cccc(C#CCn3cncn3)c2)cc1 [Example 5, N-(4-Cyano-benzyl)-3-(3-[1,2,4]-triazol-1-yl-prop-1-ynyl)-benzamide]
9 | > 30 |  | > 100 | 24 |  | > 30 | > 30 | > 10 | 0.0104 |  | CN1c2ccc(C#CCc3ccccc3)cc2C(=O)N(Cc2ccc(C(=O)O)cc2)[S+]1[O-] (stereo not shown) [Example 15, 4-[1-Methyl-2,4-dioxo-6-(3-phenyl-prop-1-ynyl)-1,4-dihydro-2H-2λ^4-benzo[1,2,6]thiadiazin-3-ylmethyl]benzoic acid]
10 | > 30 |  | > 30 | > 30 |  | > 30 | > 30 | 12 | 0.0315 |  | CN1c2ccc(C#CCc3ccccc3)cc2C(=O)N(Cc2ccc(C(=O)O)cc2)S1(=O)=O [Example 16, 4-[1-methyl-2,2,4-trioxo-6-(3-phenylprop-1-ynyl)-1,4-dihydro-2H-2λ^6-benzo[1,2,6]-thiadiazin-3-ylmethyl]benzoic acid]
11 | > 30 |  | > 100 | 16 |  | > 30 | > 100 | 5.6 | 0.00517 |  | O=C(O)c1ccc(CN2C(=O)Nc3ccc(C#CCc4ccccc4)cc3S2(=O)=O)cc1 [Example 17, 4-[1,1,3-Trioxo-7-(3-phenyl-prop-1-ynyl)-3,4-dihydro-1H-1λ^6-benzo[1,2,4]thiadiazin-2-ylmethyl]-benzoic acid]
